# Test results reported in PubChem BioAssay (NCI).
#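 Exposure lasted 48 hours, with cells grown in 96-well plates and compounds tested at five concentrations. GI50: concentration for 50% inhibition of growth. Definition used: TGI = concentration required for complete inhibition of growth.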
# Assays:
# Assay in all cases: inhibition of tumour cell growth, NCI panel, 48 h
# HT29 colon = test system: HT29 colon
# MOLT-4 leukemia = test system: MOLT-4 leukemia
# OVCAR-3 ovarian = test system: OVCAR-3 ovarian
# PC-3 prostate = test system: PC-3 prostate
# RPMI-8226 leukemia = test system: RPMI-8226 leukemia
# SF-268 CNS = test system: SF-268 CNS
# SF-295 CNS = test system: SF-295 CNS
# SK-MEL-2 melanoma = test system: SK-MEL-2 melanoma
# SK-MEL-5 melanoma = test system: SK-MEL-5 melanoma
# SR leukemia = test system: SR leukemia
SMILES,GI50 (HT29 colon),TGI (HT29 colon),GI50 (MOLT-4 leukemia),TGI (MOLT-4 leukemia),GI50 (OVCAR-3 ovarian),TGI (OVCAR-3 ovarian),GI50 (PC-3 prostate),TGI (PC-3 prostate),GI50 (RPMI-8226 leukemia),TGI (RPMI-8226 leukemia),GI50 (SF-268 CNS),TGI (SF-268 CNS),GI50 (SF-295 CNS),TGI (SF-295 CNS),GI50 (SK-MEL-2 melanoma),TGI (SK-MEL-2 melanoma),GI50 (SK-MEL-5 melanoma),TGI (SK-MEL-5 melanoma),GI50 (SR leukemia),TGI (SR leukemia)
CC(C)(O)CCc1cccc(C(=O)c2cnn(-c3ccc(F)cc3)c2N)c1,> 25 µM,> 25 µM,> 25 µM,> 25 µM,> 25 µM,> 25 µM,> 25 µM,> 25 µM,> 25 µM,> 25 µM,> 25 µM,> 25 µM,> 25 µM,> 25 µM,> 25 µM,> 25 µM,13.5 µM,> 25 µM,> 25 µM,> 25 µM
O=C(CSC(c1ccccc1)c1ccccc1)N/N=C/c1ccccc1Cl,> 63.2 µM,> 100 µM,6.33 µM,40.2 µM,15.6 µM,57.3 µM,14.1 µM,70.1 µM,8.73 µM,> 40.6 µM,25.5 µM,78.6 µM,15.9 µM,> 68.4 µM,> 62.5 µM,> 100 µM,21 µM,47.2 µM,9.48 µM,26.7 µM
O=C(NCCCl)Nc1ccccc1,,> 100 µM,,> 100 µM,,> 100 µM,,> 100 µM,,> 100 µM,,> 100 µM,,> 100 µM,,> 100 µM,,> 100 µM,,> 100 µM
COc1c(-c2ccc3c(c2)OCO3)oc2cc(O)cc(O)c2c1=O,,> 100 µM,,> 100 µM,,,,> 100 µM,,> 100 µM,,> 100 µM,,> 100 µM,,> 100 µM,,> 100 µM,,> 100 µM
O=C1CC(Cc2n[nH]c3c2CCCC3)CC(=O)N1,,> 100 µM,,> 100 µM,,> 100 µM,,> 100 µM,,> 100 µM,,> 100 µM,,> 100 µM,,> 100 µM,,> 100 µM,,> 100 µM
CNCC(=O)NC(CO)C(=O)NC(CO)C(=O)NC1C(C(N)=O)OC(n2ccc(N)nc2=O)C(O)C1O (centres undefined),25.9 µg/mL,> 50 µg/mL,> 50 µg/mL,> 50 µg/mL,8.43 µg/mL,29.6 µg/mL,10.2 µg/mL,47.5 µg/mL,> 50 µg/mL,> 50 µg/mL,1.95 µg/mL,15.6 µg/mL,2.78 µg/mL,17 µg/mL,4.58 µg/mL,23.7 µg/mL,16.1 µg/mL,> 50 µg/mL,16.8 µg/mL,> 50 µg/mL
O=C(NCc1ccco1)C1CCN(S(=O)(=O)c2ccc(Cl)cc2)CC1,> 100 µM,> 100 µM,74.1 µM,> 100 µM,> 100 µM,> 100 µM,73.8 µM,> 100 µM,94.9 µM,> 100 µM,> 100 µM,> 100 µM,81.6 µM,> 100 µM,> 100 µM,> 100 µM,53.5 µM,> 100 µM,72.8 µM,> 100 µM
CC1=NN(c2cccc(Cl)c2)C(=O)/C1=C\C=C\c1ccccc1,2.98 µM,7.4 µM,3.17 µM,> 100 µM,2.18 µM,4.4 µM,2.93 µM,> 100 µM,2.91 µM,14.3 µM,2.36 µM,6.91 µM,3.17 µM,67.8 µM,3.85 µM,16.7 µM,2.27 µM,5.76 µM,2.36 µM,> 100 µM
[Cl][Hg][c]1ccc2ccccc2c1,2.8 µM,9.58 µM,2.01 µM,15.2 µM,1.79 µM,3.63 µM,3.92 µM,11.8 µM,2.5 µM,10.1 µM,2.22 µM,5.91 µM,7.01 µM,18.9 µM,1.6 µM,3.92 µM,1.25 µM,3.13 µM,0.257 µM,5.86 µM
CC(=O)O[C@@H]1C2=C(C)C3(CC3)[C@@](C)(O)C(=O)C2=C[C@@]1(C)CO,0.322 µM,> 100 µM,1.53 µM,> 100 µM,0.319 µM,1.16 µM,1.02 µM,12.3 µM,0.372 µM,3.14 µM,0.357 µM,2.79 µM,0.406 µM,9.87 µM,1.86 µM,4.43 µM,1.73 µM,3.2 µM,0.271 µM,> 100 µM
O=C(NNc1ccccc1)c1ccc(Cl)c(Cl)c1,,> 100 µM,,> 100 µM,,> 94 µM,,> 100 µM,,> 54.4 µM,,> 100 µM,,> 86.5 µM,,36.2 µM,,41.6 µM,,> 100 µM
CC(C)c1[nH]nc2c(NCc3ccc(-c4ccccn4)cc3)nc(SCCN(C)C)nc12,< 0.0158 µM,1.21 µM,< 0.0178 µM,0.202 µM,0.0754 µM,10.9 µM,0.0313 µM,3.81 µM,0.0195 µM,0.101 µM,< 0.018 µM,3.68 µM,0.0799 µM,1.92 µM,0.0798 µM,0.269 µM,0.153 µM,0.552 µM,< 0.0294 µM,3.21 µM
CCN(CC)S(=O)(=O)c1cccc(-c2ccc3c(NC(=O)C4CC4)n[nH]c3c2)c1,2.3 µM,> 6.25 µM,1.75 µM,> 6.25 µM,1.9 µM,> 6.25 µM,2.11 µM,> 6.25 µM,1.6 µM,> 6.25 µM,2.34 µM,> 6.25 µM,1.66 µM,> 6.25 µM,1.85 µM,> 6.25 µM,0.986 µM,3.58 µM,0.259 µM,> 6.25 µM
NC(Cc1cccnn1)C(=O)O (centres undefined),,> 100 µM,,> 100 µM,,> 100 µM,,> 100 µM,,> 100 µM,,> 100 µM,,> 100 µM,,> 100 µM,,> 100 µM,,> 100 µM
